Measured values published in PMC11842588, “A first-in-class selective inhibitor of ERK1/2 and ERK5 overcomes drug resistance with a single-molecule strategy” (Signal Transduction and Targeted Therapy, 2025).

Tests used:
Test in all cases: Kinase profiling
Assay type in all cases: biochemical
CDK9/cyclin T1(h) = target: T1, CDK9/cyclin T1(h) (Homo sapiens, UniProt P50750)
T1 construct: purchased Eurofins Cerep SA (KinaseProfiler)
Method: (§1) 380 kinases inhibitory activities of SKLB-D18 were conducted by Eurofins Cerep SA. The result was illustrated by kinase tree (http://www.kinhub.org/kinmap/).

CDKL3(h) = target: T2, CDKL3(h) (Homo sapiens, UniProt Q8IVW4)
T2 construct: purchased Eurofins Cerep SA (KinaseProfiler)
Method: as §1

CHK1(h) = target: T3, CHK1(h) (Homo sapiens, UniProt O14757)
T3 construct: purchased Eurofins Cerep SA (KinaseProfiler)
Method: as §1

CK1γ1(h) = target: T4, CK1γ1(h) (Homo sapiens, UniProt Q9HCP0)
T4 construct: purchased Eurofins Cerep SA (KinaseProfiler)
Method: as §1

CK1γ3(h) = target: T5, CK1γ3(h) (Homo sapiens, UniProt Q9Y6M4)
T5 construct: purchased Eurofins Cerep SA (KinaseProfiler)
Method: as §1

COT(h) = target: T6, COT(h) (Homo sapiens, UniProt P41279)
T6 construct: purchased Eurofins Cerep SA (KinaseProfiler)
Method: as §1

CRIK(h) = target: T7, CRIK(h) (Homo sapiens, UniProt O14578)
T7 construct: purchased Eurofins Cerep SA (KinaseProfiler)
Method: as §1

CaMKIIα(h) = target: T8, CaMKIIα(h) (Homo sapiens, UniProt Q9UQM7)
T8 construct: purchased Eurofins Cerep SA (KinaseProfiler)
Method: as §1

CaMKIIβ(h) = target: T9, CaMKIIβ(h) (Homo sapiens, UniProt Q13554)
T9 construct: purchased Eurofins Cerep SA (KinaseProfiler)
Method: as §1

CaMKIV(h) = target: T10, CaMKIV(h) (Homo sapiens, UniProt Q16566)
T10 construct: purchased Eurofins Cerep SA (KinaseProfiler)
Method: as §1

EphA3(h) = target: T11, EphA3(h) (Homo sapiens, UniProt P29320)
T11 construct: purchased Eurofins Cerep SA (KinaseProfiler)
Method: as §1

FGFR2(h) = target: T12, FGFR2(h) (Homo sapiens, UniProt P21802)
T12 construct: purchased Eurofins Cerep SA (KinaseProfiler)
Method: as §1

Fes(h) = target: T13, Fes(h) (Homo sapiens, UniProt P07332)
T13 construct: purchased Eurofins Cerep SA (KinaseProfiler)
Method: as §1

GRK7(h) = target: T14, GRK7(h) (Homo sapiens, UniProt Q8WTQ7)
T14 construct: purchased Eurofins Cerep SA (KinaseProfiler)
Method: as §1

GSK3β(h) = target: T15, GSK3β(h) (Homo sapiens, UniProt P49841)
T15 construct: purchased Eurofins Cerep SA (KinaseProfiler)
Method: as §1

IKKα(h) = target: T16, IKKα(h) (Homo sapiens, UniProt O15111)
T16 construct: purchased Eurofins Cerep SA (KinaseProfiler)
Method: as §1

LIMK2(h) = target: T17, LIMK2(h) (Homo sapiens, UniProt P53671)
T17 construct: purchased Eurofins Cerep SA (KinaseProfiler)
Method: as §1

LKB1(h) = target: T18, LKB1(h) (Homo sapiens, UniProt Q15831)
T18 construct: purchased Eurofins Cerep SA (KinaseProfiler)
Method: as §1

LTK(h) = target: T19, LTK(h) (Homo sapiens, UniProt P29376)
T19 construct: purchased Eurofins Cerep SA (KinaseProfiler)
Method: as §1

MAP4K3(h) = target: T20, MAP4K3(h) (Homo sapiens, UniProt Q8IVH8)
T20 construct: purchased Eurofins Cerep SA (KinaseProfiler)
Method: as §1

MAP4K5(h) = target: T21, MAP4K5(h) (Homo sapiens, UniProt Q9Y4K4)
T21 construct: purchased Eurofins Cerep SA (KinaseProfiler)
Method: as §1

MARK1(h) = target: T22, MARK1(h) (Homo sapiens, UniProt Q9P0L2)
T22 construct: purchased Eurofins Cerep SA (KinaseProfiler)
Method: as §1

MARK3(h) = target: T23, MARK3(h) (Homo sapiens, UniProt P27448)
T23 construct: purchased Eurofins Cerep SA (KinaseProfiler)
Method: as §1

MEKK2(h) = target: T24, MEKK2(h) (Homo sapiens, UniProt Q9Y2U5)
T24 construct: purchased Eurofins Cerep SA (KinaseProfiler)
Method: as §1

MEKK3(h) = target: T25, MEKK3(h) (Homo sapiens, UniProt Q99759)
T25 construct: purchased Eurofins Cerep SA (KinaseProfiler)
Method: as §1

MKK3(h) = target: T26, MKK3(h) (Homo sapiens, UniProt P46734)
T26 construct: purchased Eurofins Cerep SA (KinaseProfiler)
Method: as §1

MYLK2(h) = target: T27, MYLK2(h) (Homo sapiens, UniProt Q9H1R3)
T27 construct: purchased Eurofins Cerep SA (KinaseProfiler)
Method: as §1

NEK3(h) = target: T28, NEK3(h) (Homo sapiens, UniProt P51956)
T28 construct: purchased Eurofins Cerep SA (KinaseProfiler)
Method: as §1

PKA(h) = target: T29, PKA(h) (Homo sapiens, UniProt P17612)
T29 construct: purchased Eurofins Cerep SA (KinaseProfiler)
Method: as §1

PKAcβ(h) = target: T30, PKAcβ(h) (Homo sapiens, UniProt P22694)
T30 construct: purchased Eurofins Cerep SA (KinaseProfiler)
Method: as §1

ROCK-II(h) = target: T31, ROCK-II(h) (Homo sapiens, UniProt O75116)
T31 construct: purchased Eurofins Cerep SA (KinaseProfiler)
Method: as §1

SAPK2a(h) = target: T32, SAPK2a(h) (Homo sapiens, UniProt Q16539)
T32 construct: purchased Eurofins Cerep SA (KinaseProfiler)
Method: as §1

STK32C(h) = target: T33, STK32C(h) (Homo sapiens, UniProt Q86UX6)
T33 construct: purchased Eurofins Cerep SA (KinaseProfiler)
Method: as §1

STK33(h) = target: T34, STK33(h) (Homo sapiens, UniProt Q9BYT3)
T34 construct: purchased Eurofins Cerep SA (KinaseProfiler)
Method: as §1

Snk(h) = target: T35, Snk(h) (Homo sapiens, UniProt Q9NYY3)
T35 construct: purchased Eurofins Cerep SA (KinaseProfiler)
Method: as §1

TSSK3(h) = target: T36, TSSK3(h) (Homo sapiens, UniProt Q96PN8)
T36 construct: purchased Eurofins Cerep SA (KinaseProfiler)
Method: as §1

TYK2(h) = target: T37, TYK2(h) (Homo sapiens, UniProt P29597)
T37 construct: purchased Eurofins Cerep SA (KinaseProfiler)
Method: as §1

Tec(h) activated = target: T38, Tec(h) activated (Homo sapiens, UniProt P42680)
T38 construct: purchased Eurofins Cerep SA (KinaseProfiler)
Method: as §1

Wee1B(h) = target: T39, Wee1B(h) (Homo sapiens, UniProt P0C1S8)
T39 construct: purchased Eurofins Cerep SA (KinaseProfiler)
Method: as §1

ZAK(h) = target: T40, ZAK(h) (Homo sapiens, UniProt Q9NYL2)
T40 construct: purchased Eurofins Cerep SA (KinaseProfiler)
Method: as §1

mTOR(h) = target: T41, mTOR(h) (Homo sapiens, UniProt P42345)
T41 construct: purchased Eurofins Cerep SA (KinaseProfiler)
Method: as §1

T17 sequence (P53671 whole entry): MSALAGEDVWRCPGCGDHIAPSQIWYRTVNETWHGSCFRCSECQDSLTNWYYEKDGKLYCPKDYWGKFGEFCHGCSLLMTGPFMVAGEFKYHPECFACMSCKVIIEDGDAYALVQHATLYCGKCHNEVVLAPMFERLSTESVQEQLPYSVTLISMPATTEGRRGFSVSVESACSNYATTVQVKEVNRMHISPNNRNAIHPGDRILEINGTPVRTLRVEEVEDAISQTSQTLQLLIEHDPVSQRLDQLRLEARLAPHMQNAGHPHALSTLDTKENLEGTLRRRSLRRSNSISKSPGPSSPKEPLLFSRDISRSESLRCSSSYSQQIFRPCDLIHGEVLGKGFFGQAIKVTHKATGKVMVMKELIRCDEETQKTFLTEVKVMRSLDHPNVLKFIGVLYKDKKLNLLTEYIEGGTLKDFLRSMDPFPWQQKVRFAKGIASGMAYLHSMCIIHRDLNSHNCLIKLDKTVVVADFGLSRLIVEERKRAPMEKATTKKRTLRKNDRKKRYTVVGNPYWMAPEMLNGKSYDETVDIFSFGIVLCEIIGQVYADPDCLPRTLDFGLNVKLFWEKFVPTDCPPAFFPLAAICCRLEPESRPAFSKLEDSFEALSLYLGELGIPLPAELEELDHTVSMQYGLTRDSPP
T3 sequence (O14757 whole entry): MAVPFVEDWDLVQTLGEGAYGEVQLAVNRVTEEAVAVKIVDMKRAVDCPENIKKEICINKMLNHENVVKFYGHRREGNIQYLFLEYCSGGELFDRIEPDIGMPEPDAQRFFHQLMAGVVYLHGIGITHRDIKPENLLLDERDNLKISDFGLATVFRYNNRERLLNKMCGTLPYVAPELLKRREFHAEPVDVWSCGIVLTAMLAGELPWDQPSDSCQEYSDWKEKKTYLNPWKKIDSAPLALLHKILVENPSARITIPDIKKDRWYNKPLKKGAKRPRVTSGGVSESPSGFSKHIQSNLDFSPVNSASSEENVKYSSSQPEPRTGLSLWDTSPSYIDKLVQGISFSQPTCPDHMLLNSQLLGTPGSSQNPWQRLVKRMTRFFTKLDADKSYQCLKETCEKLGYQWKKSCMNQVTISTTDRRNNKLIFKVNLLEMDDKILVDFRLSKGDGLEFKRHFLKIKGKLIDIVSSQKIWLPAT
T23 sequence (P27448 whole entry): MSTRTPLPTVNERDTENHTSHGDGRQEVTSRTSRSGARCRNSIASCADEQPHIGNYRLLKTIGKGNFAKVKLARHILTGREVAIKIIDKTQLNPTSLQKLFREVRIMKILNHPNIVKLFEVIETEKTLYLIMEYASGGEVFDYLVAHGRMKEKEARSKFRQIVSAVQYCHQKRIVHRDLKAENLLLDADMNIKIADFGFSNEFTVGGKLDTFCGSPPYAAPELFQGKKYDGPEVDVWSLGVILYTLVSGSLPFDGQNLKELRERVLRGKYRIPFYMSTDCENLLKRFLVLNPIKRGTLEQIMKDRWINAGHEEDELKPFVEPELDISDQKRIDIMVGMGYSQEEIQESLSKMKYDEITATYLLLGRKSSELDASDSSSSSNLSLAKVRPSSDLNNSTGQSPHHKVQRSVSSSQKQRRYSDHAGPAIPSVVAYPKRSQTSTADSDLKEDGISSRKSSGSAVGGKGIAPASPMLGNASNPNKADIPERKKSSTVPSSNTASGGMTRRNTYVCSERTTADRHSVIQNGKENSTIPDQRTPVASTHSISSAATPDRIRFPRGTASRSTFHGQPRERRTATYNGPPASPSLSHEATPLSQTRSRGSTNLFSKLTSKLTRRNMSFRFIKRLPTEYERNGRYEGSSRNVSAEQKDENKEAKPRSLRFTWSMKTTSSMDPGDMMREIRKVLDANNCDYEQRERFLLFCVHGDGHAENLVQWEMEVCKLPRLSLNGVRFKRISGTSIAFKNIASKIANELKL
T27 sequence (Q9H1R3 whole entry): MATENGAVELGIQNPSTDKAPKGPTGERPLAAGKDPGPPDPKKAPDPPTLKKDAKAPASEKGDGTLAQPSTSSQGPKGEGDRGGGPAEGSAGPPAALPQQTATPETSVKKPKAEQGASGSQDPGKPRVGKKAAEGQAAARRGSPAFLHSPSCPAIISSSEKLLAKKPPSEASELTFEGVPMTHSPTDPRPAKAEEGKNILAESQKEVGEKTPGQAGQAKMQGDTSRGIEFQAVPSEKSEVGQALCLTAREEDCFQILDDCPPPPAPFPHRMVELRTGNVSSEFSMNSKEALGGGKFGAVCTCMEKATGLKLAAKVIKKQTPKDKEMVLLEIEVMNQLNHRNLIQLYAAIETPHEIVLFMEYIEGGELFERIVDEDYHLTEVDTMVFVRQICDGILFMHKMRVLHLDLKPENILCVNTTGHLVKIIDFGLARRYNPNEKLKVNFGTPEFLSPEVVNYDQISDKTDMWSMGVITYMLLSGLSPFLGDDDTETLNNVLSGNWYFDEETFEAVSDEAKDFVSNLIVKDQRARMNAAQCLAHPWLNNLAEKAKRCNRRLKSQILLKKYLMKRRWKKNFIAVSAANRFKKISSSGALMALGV
T14 sequence (Q8WTQ7 whole entry): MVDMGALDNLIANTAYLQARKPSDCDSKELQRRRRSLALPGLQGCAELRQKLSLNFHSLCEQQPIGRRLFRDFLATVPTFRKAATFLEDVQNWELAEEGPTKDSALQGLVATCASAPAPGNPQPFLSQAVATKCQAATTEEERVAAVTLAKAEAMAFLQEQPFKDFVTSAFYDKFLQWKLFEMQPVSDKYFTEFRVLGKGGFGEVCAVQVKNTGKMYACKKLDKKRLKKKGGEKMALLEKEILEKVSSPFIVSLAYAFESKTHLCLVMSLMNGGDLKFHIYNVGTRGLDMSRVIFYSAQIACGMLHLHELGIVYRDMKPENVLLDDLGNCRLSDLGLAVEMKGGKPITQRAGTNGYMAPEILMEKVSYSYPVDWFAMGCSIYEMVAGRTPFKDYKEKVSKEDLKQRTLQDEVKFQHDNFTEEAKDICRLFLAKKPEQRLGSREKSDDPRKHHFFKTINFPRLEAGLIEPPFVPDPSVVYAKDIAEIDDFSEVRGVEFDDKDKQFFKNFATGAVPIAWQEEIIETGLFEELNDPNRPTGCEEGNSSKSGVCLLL
T22 sequence (Q9P0L2 whole entry): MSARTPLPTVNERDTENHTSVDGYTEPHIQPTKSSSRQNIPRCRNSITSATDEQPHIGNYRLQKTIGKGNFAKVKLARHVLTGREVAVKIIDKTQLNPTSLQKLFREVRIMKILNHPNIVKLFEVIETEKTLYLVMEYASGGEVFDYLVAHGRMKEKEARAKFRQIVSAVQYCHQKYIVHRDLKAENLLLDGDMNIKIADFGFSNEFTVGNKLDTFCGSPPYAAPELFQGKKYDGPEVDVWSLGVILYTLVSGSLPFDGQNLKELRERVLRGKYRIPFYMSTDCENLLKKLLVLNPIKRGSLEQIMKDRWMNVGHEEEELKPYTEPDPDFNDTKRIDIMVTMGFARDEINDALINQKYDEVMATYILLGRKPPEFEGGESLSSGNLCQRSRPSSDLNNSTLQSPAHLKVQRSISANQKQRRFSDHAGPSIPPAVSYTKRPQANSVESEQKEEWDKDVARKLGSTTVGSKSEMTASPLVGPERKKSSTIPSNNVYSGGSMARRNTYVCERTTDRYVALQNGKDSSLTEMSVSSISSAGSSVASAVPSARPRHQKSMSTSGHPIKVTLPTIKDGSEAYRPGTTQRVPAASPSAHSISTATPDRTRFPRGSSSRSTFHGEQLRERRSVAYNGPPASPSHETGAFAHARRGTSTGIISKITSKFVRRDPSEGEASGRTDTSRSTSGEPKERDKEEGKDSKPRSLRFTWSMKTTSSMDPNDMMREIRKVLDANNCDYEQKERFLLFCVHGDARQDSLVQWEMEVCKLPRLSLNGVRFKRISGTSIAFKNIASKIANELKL
T15 sequence (P49841 whole entry): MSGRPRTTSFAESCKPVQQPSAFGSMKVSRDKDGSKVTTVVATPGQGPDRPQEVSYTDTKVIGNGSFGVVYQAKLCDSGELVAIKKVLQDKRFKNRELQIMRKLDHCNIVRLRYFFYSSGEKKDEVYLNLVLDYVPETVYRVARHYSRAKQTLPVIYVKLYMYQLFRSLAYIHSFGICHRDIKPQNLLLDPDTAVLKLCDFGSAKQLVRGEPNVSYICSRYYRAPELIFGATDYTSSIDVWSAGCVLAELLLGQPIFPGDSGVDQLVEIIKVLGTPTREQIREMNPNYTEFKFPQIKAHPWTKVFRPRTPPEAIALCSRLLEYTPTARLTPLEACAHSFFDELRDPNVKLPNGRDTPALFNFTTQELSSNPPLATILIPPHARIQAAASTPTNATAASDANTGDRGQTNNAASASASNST
T6 sequence (P41279 whole entry): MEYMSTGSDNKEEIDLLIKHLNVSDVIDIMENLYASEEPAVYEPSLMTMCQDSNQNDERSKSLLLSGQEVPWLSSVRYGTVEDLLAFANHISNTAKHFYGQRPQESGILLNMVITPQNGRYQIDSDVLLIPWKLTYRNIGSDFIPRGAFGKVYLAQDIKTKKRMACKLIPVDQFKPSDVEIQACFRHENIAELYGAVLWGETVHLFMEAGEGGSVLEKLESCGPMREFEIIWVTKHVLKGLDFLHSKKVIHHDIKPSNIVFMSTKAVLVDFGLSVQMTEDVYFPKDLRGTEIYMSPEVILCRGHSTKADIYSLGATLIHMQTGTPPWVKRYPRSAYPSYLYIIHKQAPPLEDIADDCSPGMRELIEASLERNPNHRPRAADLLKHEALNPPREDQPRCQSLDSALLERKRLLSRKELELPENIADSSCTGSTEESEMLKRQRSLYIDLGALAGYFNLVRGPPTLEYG
T36 sequence (Q96PN8 whole entry): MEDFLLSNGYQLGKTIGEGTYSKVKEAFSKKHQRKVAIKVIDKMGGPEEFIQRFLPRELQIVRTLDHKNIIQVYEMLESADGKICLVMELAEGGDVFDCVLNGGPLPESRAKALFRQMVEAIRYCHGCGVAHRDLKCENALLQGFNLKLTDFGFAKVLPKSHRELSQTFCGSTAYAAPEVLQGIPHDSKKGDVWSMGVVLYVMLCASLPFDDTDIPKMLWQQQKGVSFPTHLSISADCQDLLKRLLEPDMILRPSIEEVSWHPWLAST

CN(C)Cc1cccc(Nc2ncc(Cl)c(-c3csc(C(=O)NN4CCOCC4)c3)n2)c1 [SKLB-D18, 4-(5-chloro-2-((3-((dimethylamino)methyl)phenyl)amino)pyrimidin-4-yl)-N-morpholinothiophene-2-carboxamide]
inhibition at 1 µM (CDK9/cyclin T1(h)): 28% | inhibition at 1 µM (CDKL3(h)): 54% | inhibition at 1 µM (CHK1(h)): 36% | inhibition at 1 µM (CK1γ1(h)): 16% | inhibition at 1 µM (CK1γ3(h)): 14% | inhibition at 1 µM (COT(h)): -5% | inhibition at 1 µM (CRIK(h)): 19% | inhibition at 1 µM (CaMKIIα(h)): -25% | inhibition at 1 µM (CaMKIIβ(h)): 44% | inhibition at 1 µM (CaMKIV(h)): 24% | inhibition at 1 µM (EphA3(h)): 12% | inhibition at 1 µM (FGFR2(h)): 55% | inhibition at 1 µM (Fes(h)): 53% | inhibition at 1 µM (GRK7(h)): 5% | inhibition at 1 µM (GSK3β(h)): 68% | inhibition at 1 µM (IKKα(h)): 34% | inhibition at 1 µM (LIMK2(h)): 17% | inhibition at 1 µM (LKB1(h)): 29% | inhibition at 1 µM (LTK(h)): 38% | inhibition at 1 µM (MAP4K3(h)): 60% | inhibition at 1 µM (MAP4K5(h)): 51% | inhibition at 1 µM (MARK1(h)): 64% | inhibition at 1 µM (MARK3(h)): 68% | inhibition at 1 µM (MEKK2(h)): 53% | inhibition at 1 µM (MEKK3(h)): 8% | inhibition at 1 µM (MKK3(h)): 4% | inhibition at 1 µM (MYLK2(h)): 68% | inhibition at 1 µM (NEK3(h)): 63% | inhibition at 1 µM (PKA(h)): 19% | inhibition at 1 µM (PKAcβ(h)): 12% | inhibition at 1 µM (ROCK-II(h)): 34% | inhibition at 1 µM (SAPK2a(h)): 9% | inhibition at 1 µM (STK32C(h)): 1% | inhibition at 1 µM (STK33(h)): 63% | inhibition at 1 µM (Snk(h)): 28% | inhibition at 1 µM (TSSK3(h)): 53% | inhibition at 1 µM (TYK2(h)): 83% | inhibition at 1 µM (Tec(h) activated): 8% | inhibition at 1 µM (Wee1B(h)): 49% | inhibition at 1 µM (ZAK(h)): 5% | inhibition at 1 µM (mTOR(h)): -4%
